pIC50: −log10 of the molar value.
Columns and labels:
MEST T579B = molecular target: T1, MEST T579B (Homo sapiens, UniProt Q5EB52); test: Glycerol 3-phosphate acyl transferase activity, MEST T579B-recombinant Sf9 crude membranes; assay type: biochemical
T1 construct: T579B=amino acids 2-335 and T580B=amino acids 11-335; made in house; host or cells: Sf9 insect cells (baculovirus, pVL1392); crude total membranes
T1 sequence (Q5EB52 2-335): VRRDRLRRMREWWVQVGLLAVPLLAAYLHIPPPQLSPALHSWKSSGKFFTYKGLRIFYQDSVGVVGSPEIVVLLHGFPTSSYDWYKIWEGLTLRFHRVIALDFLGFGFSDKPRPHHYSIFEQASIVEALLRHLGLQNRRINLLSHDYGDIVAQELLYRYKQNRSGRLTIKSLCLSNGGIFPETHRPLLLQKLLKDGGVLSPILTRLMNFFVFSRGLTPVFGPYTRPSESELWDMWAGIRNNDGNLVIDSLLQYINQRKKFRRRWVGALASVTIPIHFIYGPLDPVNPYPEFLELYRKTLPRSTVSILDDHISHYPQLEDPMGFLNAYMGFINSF
Procedure: (§1) The assay for determining glycerol 3-phosphate acyl transferase is based on the following principle:
(§2) Glycerol 3-phosphate acyl transferase activity was determined as incorporation of palmitate with palmitoyl CoA as acyl donor and radio-labeled [^3H] glycerol 3-phosphate as acyl acceptor, to obtain radio-labeled palmitoyl glycerol 3-phosphate. Radioactive-labeled product palmitoyl glycerol 3-phosphate was separated from the radio-labeled substrate by addition of a scintillator based on organic solvent in order to determine radioactivity in a suitable counter. After separation of phases, only radio-label in the organic solvent phase, which is saturated with scintillator, is detected, i.e. hydrophobic and amphiphilic substances as radio-labeled palmitoyl glycerol 3-phosphate. Hydrophilic radio-labeled glycerol phosphate, which has not been acylated, remains in the aqueous phase and is, therefore, not counted by the scintillation counter. The low amount of “cross-irradiation” from the aqueous phase to the organic phase was corrected by substracting a blank value of a control (containing all reaction components apart from MEST protein) for all MEST reactions.
(§3) Membranes of insect cells expressing human recombinant MEST protein (as below) in homogenization buffer adjusted to the desired concentration (determination of protein content by BioRad assay)
(§4) 10 μl enzyme solution were incubated with 50 μl reaction solution at 25° C. for 60 min. Incubation was carried out in an Eppendorf Thermomixer comfort with gentle agitation (450 min^−1), wherein the openings of the plate were sealed by a protection film (Whatman Uni Seal 7704-0009). The reaction was terminated by addition of 5 μl 200 mM glycerol 3-phosphate and 200 μl scintillation liquid (beta-plate, #1205-440, Perkin Elmer) and incubation under agitation as above at 25° C. for 15 min. After at least 12 hours of incubation at 25° C. without agitation for separation of the phases, radioactivity (in dpm) was measured in a scintillation counter (Wallac 1450 micro beta).
(§5) The enzyme solution (total membranes of Sf9 insect cells) was produced as follows: Sf9 insect cells were pelleted by centrifugation and frozen in aliquots (about 7-9 g). When needed, pelleted Sf9 insect cells were quickly thawed in a 37° C. water bath and kept on ice until further processing. Thereafter, they were transferred into a 50 ml glass homogenizer containing 10 ml homogenization buffer and, additionally, 0.5 mM DTT for preparing a suspension. Cells were homogenized in a teflon-in-glass homogenizer (10×1500/min at 4° C.). The homogenate was transferred into JA25.5 centrifugation tubes (Beckman #363647), diluted with 10 ml homogenization buffer plus DTT and pelleted by centrifugation (500 g, 5 min, 4° C., refrigerated centrifuge Beckman Avanti JA25I). The supernatant was transferred into ultracentrifugation tubes (Beckman #355618) and centrifugated (100000 g, 60 min, 4° C., Beckman Optima LE-80K). The supernatant was completely removed. The pellet was two times carefully washed with homogenization buffer and then resuspended in homogenization buffer. Enzyme solution was aliquoted, frozen in liquid nitrogen and stored at −80° C.
The experiment was carried out as detailed above. Particularly, crude membranes from insect cells (SF9) transfected to express MEST (T579B) were produced and assayed for glycerol 3-phosphate acyltransferase activity (dpm/test) in the presence of A003564556 or S987600. […]
The experiment was carried out as detailed above. Particularly, crude membranes of non-transfected insect cells (SF9) or insect cells (SF9) transfected to express either MEST (T579B) or GPAT (GPAT1, -3 or -4) were produced and assayed in the presence of 1 mM N-Ethylmaleimide (NEM) for 1 h or at 41° C. for 10 min.

MEST T580B = molecular target: T2, MEST T580B (Homo sapiens, UniProt Q5EB52); test: Glycerol 3-phosphate acyl transferase activity, MEST T580B-recombinant Sf9 crude membranes; assay type: biochemical; details: 1 mM NEM for 1 h
T2 construct: T579B=amino acids 2-335 and T580B=amino acids 11-335; made in house; host or cells: Sf9 insect cells (baculovirus, pVL1392); crude total membranes
T2 sequence (Q5EB52 11-335): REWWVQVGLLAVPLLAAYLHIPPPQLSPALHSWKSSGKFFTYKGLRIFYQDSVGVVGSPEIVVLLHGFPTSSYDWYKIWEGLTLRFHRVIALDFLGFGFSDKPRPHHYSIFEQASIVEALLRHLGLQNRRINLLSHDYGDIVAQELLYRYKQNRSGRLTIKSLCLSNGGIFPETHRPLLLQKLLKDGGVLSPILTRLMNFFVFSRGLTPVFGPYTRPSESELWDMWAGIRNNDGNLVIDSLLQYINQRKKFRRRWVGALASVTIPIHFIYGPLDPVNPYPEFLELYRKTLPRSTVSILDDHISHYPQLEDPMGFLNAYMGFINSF
Procedure: as §1, §2, §3, §4
as §5, with “The supernatant was transferred into ultracentrifugation tubes (Beckman #355618) and centrifugated (100000 g, 60 min, 4° C., Beckman Optima LE-80K). The supernatant was completely removed. The pellet was two times carefully washed with homogenization buffer and then resuspended in homogenization buffer. Enzyme solution was aliquoted, frozen in liquid nitrogen and stored at −80° C.” left out

[1] = tested on: endogenous insect cell glycerol 3-phosphate acyltransferase activities; test: Glycerol 3-phosphate acyl transferase activity, non-transfected Sf9 crude membranes; assay type: biochemical, Sf9 insect cells; details: 1 mM NEM for 1 h
Procedure: as §1, §2, §4
as §5, with “The pellet was two times carefully washed with homogenization buffer and then resuspended in homogenization buffer. Enzyme solution was aliquoted, frozen in liquid nitrogen and stored at −80° C.” left out

[2] = inhibitor 0.3 μM, MEST T579B 10 μg/Test
[3] = inhibitor 1 μM, MEST T579B 10 μg/Test
[4] = inhibitor 3 μM, MEST T579B 10 μg/Test
[5] = inhibitor 10 μM, MEST T579B 10 μg/Test
[6] = inhibitor 30 μM, MEST T579B 10 μg/Test
[7] = inhibitor 100 μM, MEST T579B 10 μg/Test
[8] = inhibitor 200 μM, MEST T579B 10 μg/Test
[9] = 1 mM NEM for 1 h, 10 μg Protein/Test
[10] = 1 mM NEM for 1 h, 30 μg Protein/Test

Structure (SMILES): O=C(O)CCCCCCCCCCCNC(=O)NC12CC3CC(CC(C3)C1)C2 [A003564556]
- Inhibition of MEST activity (in words) (MEST T579B; MEST T579B crude membranes): partially inhibited
- Activity (dpm/Test) (MEST T579B; [2]): 905 dpm/Test
- inhibition at 0.3 µM (MEST T579B; [2]): -6%
- Activity (dpm/Test) (MEST T579B; [3]): 1011 dpm/Test
- inhibition at 1 µM (MEST T579B; [3]): -19%
- Activity (dpm/Test) (MEST T579B; [4]): 881 dpm/Test
- inhibition at 3 µM (MEST T579B; [4]): -4%
- Activity (dpm/Test) (MEST T579B; [5]): 845 dpm/Test
- inhibition at 10 µM (MEST T579B; [5]): 1%
- Activity (dpm/Test) (MEST T579B; [6]): 779 dpm/Test
- inhibition at 30 µM (MEST T579B; [6]): 8%
- Activity (dpm/Test) (MEST T579B; [7]): 557 dpm/Test
- inhibition at 100 µM (MEST T579B; [7]): 34%
- Activity (dpm/Test) (MEST T579B; [8]): 458 dpm/Test
- inhibition at 200 µM (MEST T579B; [8]): 48%
- pIC50 (MEST T579B; partial inhibition of glycerol 3-phosphate acyl transferase activity): ~3.70

Structure (SMILES): CCN1C(=O)C=CC1=O [NEM, N-Ethylmaleimide]
- Inhibition of MEST activity (in words) (MEST T579B; 1 mM NEM for 1 h): completely
- Activity (dpm/Test) (MEST T579B; [9]): 49 dpm/Test
- inhibition at 1000 µM (MEST T579B; [9]): 90%
- Activity (dpm/Test) (MEST T579B; [10]): 53 dpm/Test
- inhibition at 1000 µM (MEST T579B; [10]): 94%
- Activity (dpm/Test) (MEST T580B; 10 μg Protein/Test): −11 dpm/Test
- inhibition at 1000 µM (MEST T580B; 10 μg Protein/Test): 101%
- Activity (dpm/Test) (MEST T580B; 30 μg Protein/Test): 31 dpm/Test
- inhibition at 1000 µM (MEST T580B; 30 μg Protein/Test): 96%
- % Inhibition ([1]; 10 μg Protein/Test): 95%
- Activity (dpm/Test) ([1]; 10 μg Protein/Test): 6 dpm/Test
- % Inhibition ([1]; 30 μg Protein/Test): 107%
- Activity (dpm/Test) ([1]; 30 μg Protein/Test): −12 dpm/Test

Source: patent US20120270250A1, “TEST SYSTEM FOR MEASURING MEST ACTIVITY AS WELL AS METHODS AND USES INVOLVING THE SAME” (SANOFI, priority 2009, published 2012)
